The record followed here is US8377967B2, “Piperidine derivative” (Nippon Zoki Pharmaceutical Co., Ltd., priority 2008, dated 2013).

One test deals with T1, cerebral H1 receptor (Mus musculus, UniProt P70174).
T1 construct: the entire brain, except for cerebellum and medulla oblongatae, was rapidly excised; from tissue; host or cells: brain homogenate (without cerebellum and medulla oblongata) of orally dosed ICR male mice
The test can be described thus: Murine cerebral H1 receptor occupying content (ex vivo). It counts as in vivo. The conditions noted are these: for ED50: ICR male mouse, oral administration, brain excised after 1 hour, 3H-pyrilamine binding in brain homogenate, larger = lower brain transfer, read-out: ID50 (the source's name); for ID50 (mg/kg)/ ED50 (mg/kg): ID50 of cerebral receptor binding test (Table 20) divided by ED50 of vascular hyperpermeability test (Table 19). The method, then:
A 6-week-old ICR male mouse was previously fed for one week or more by allowing the mouse to take a solid feed and tap water ad libitum, under the environment setting of a temperature of 22° C., humidity of 55% and an artificial illumination of 12 hours a day, and the mouse was fasted overnight to be used for the experiment. A substance to be tested was dissolved with water for injection or suspended in 0.5% carboxymethyl cellulose solution, and the solution or suspension was orally administered to the mouse (dose volume: 0.1 mL/10 g body weight). After 1 hour from the oral administration, the mouse was decapitated, and the entire brain, except for cerebellum and medulla oblongatae, was rapidly excised. The excised brain tissue was homogenized with Polytron (manufactured by Kinematica) in an ice-cooled 50 mmol/L phosphate buffered saline (pH 7.4, 100 mg/1.9 mL).
To a test tube for reaction (TPX-Tube) were added 180 μL of the brain homogenate, and 10 μL of ^3H-pyrilamine solution (final concentration: 2 nmol/L) and 10 μL of a non-labeled pyrilamine solution (final concentration: 200 μmol/L) or a 50 mmol/L phosphate buffered saline, and the mixture was incubated at room temperature for 45 minutes, and 2.0 mL of an ice-cooled, 50 mmol/L phosphate buffered saline was then added thereto to stop the reaction. The reaction mixture was filtered with a GF/B filter (manufactured by […]), and the […] was placed in a vial and dried overnight at 60 degrees. After drying, 10 mL of a scintillator (AL-1, toluene-based, manufactured by DOJINDO LABORATORIES) was added to the product, and the disintegration per minute (dpm) was measured with a liquid scintillation counter (manufactured by Packard, U.S.A., TRI-CARB 2700TR) (5 minutes/vial).

Test [1] concerns histamine-induced vascular hyperpermeability reaction. Nature of the test: Rat histamine-induced vascular hyperpermeability reaction (in vivo antihistamine action). The conditions noted are these: SD male rat, oral administration 1 hour before intracutaneous histamine, leaked Evans Blue pigment. As to the method: An SD male rat (SPF) of 180 g in weight was previously fed for one week or more by allowing the rat to take a solid feed and tap water ad libitum, under the environment setting of a temperature of 22° C., humidity of 55% and an artificial illumination of 12 hours a day (light phase 8 am to 8 pm), and the rat was fasted overnight to be used for the experiment. Histamine•dihydrochloride (hereinafter referred to as histamine) and Evans Blue were used by dissolving each in physiological saline upon use. A substance to be tested was dissolved in water for injection or suspended in 0.5% carboxymethyl cellulose sodium, and the rat was orally administered with the solution or suspension (dose volume: 5 mL/kg body weight). After 1 hour from the administration, the physiological saline and the histamine solution were each intracutaneously injected to two locations (20 μg/0.05 ml/location) each on a back part of the rat of which hair was sheared with an electric clipper while anesthetizing with an ether. A 0.5% Evans Blue-containing physiological saline was injected intravenously to the tail of the rat (1 mL/200 g body weight) immediately before the intracutaneous injection of the histamine.
After 30 minutes, the animal was decapitated, and allowed to bleed lethally, and the skin was removed to measure an amount of leaked pigment in the blue-stained portion. The measurement of the amount of leaked pigment was carried out as follows. Skins of the pigment leaking site were cut out at two locations, 1 mL of a 2 mol/L aqueous potassium hydroxide solution was added thereto in a test tube, and the test tube was allowed to stand overnight at 37° C. to dissolve. Thereafter, 6 mL of a 1:3 mixed solution of 0.67 mol/L phosphoric acid and acetone was added to the solution, and the mixture was vigorously shaken for 10 minutes. Thereafter, the mixture was filtered, and the absorbance of the filtrate at 620 nm was measured. The absorbance obtained from the two locations of the sites injected with physiological saline, as blank value, was used for a compensation. The amount of leaked pigment was calculated from the calibration curve of Evans Blue at 620 nm.

In test [2] the target is human histamine H1 receptor (Homo sapiens, UniProt P35367). Nature of the test: In vitro human histamine H1 receptor binding experiment ([3H]pyrilamine). The settings on record: HEK293A cells stably expressing human histamine H1 receptor, [3H]pyrilamine 3 nmol/L, room temperature 60 minutes. Put shortly: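 HEK293A cells stably expressing human H1 receptor (3×10^5 cells/well) incubated 60 min at room temperature with test substance and 3 nmol/L [3H]pyrilamine in 50 mmol/L Tris-HCl pH 7.5, 0.1% BSA. Filtration and scintillation counting; nonspecific binding with 30 μmol/L pyrilamine.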

pIC50: −log10 of the molar value.

T1 sequence (P70174 whole entry): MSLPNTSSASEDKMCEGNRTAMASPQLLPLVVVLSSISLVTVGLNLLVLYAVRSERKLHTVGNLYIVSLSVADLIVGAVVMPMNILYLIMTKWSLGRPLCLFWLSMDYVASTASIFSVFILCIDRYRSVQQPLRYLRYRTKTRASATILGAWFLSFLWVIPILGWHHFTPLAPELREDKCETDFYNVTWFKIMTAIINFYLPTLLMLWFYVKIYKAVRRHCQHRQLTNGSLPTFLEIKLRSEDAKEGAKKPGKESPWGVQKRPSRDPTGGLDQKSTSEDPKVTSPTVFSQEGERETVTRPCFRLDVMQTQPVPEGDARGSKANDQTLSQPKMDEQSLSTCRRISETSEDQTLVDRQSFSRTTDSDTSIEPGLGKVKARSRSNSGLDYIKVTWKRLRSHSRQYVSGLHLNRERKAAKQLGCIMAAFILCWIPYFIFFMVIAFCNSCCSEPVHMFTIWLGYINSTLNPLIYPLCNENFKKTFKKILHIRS
Chain of human histamine H1 receptor (P35367 whole entry): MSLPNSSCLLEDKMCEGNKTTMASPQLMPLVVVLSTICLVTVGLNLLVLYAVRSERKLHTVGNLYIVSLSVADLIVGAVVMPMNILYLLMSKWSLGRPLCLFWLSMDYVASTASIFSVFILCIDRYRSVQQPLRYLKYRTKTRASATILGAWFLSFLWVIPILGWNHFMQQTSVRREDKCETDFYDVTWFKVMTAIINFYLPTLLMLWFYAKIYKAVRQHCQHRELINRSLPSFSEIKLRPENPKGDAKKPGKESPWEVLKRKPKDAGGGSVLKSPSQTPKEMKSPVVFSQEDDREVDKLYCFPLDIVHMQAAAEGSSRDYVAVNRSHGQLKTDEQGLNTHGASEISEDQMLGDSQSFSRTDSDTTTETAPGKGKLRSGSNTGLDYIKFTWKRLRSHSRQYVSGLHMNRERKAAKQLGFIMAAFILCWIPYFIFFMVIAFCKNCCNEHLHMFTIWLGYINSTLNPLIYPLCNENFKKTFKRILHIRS

By pIC50 is commonly meant the IC50 on a negative log10 scale, so that one unit is a factor of ten. A lower pIC50 goes with a high IC50. Regarding `CCOC(=O)C=Cc1cc2c(s1)CCc1ccccc1C2=C1CCNCC1.Cl` [Compound 145, Ethyl 3-(4-piperidin-4-ylidene-9,10-dihydro-4H-1-thiabenzo[f]azulen-2-yl)acrylate hydrochloride], the ED50 is over 200 mg/kg on cerebral H1 receptor and 0.29 mg/kg in test [1]. Further, the “ID50 (mg/kg)/ ED50 (mg/kg)” value on cerebral H1 receptor is on record as over 689.7. Moreover, the pIC50 in test [2] is 7.16.

Consider `CN1CCC(=C2c3ccccc3CCc3sc(C(=O)NCCO)cc32)CC1` [Compound 27, N-(2-Hydroxyethyl) [4-(1-methylpiperidin-4-ylidene)-9,10-dihydro-4H-1-thiabenzo[f]azulen-2-yl]carboxamide], for which, at cerebral H1 receptor, the ED50 came to 55.1 mg/kg and the “ID50 (mg/kg)/ ED50 (mg/kg)” value is recorded as 33.8. Besides, the ED50 in test [1] was 1.63 mg/kg. For the same compound, the pIC50 in test [2] is 7.28.

As for `CCOC(=O)Cc1ccc2c(c1)C(=C1CCN(C)CC1)c1sccc1CO2.Cl` [Compound 140, Ethyl[4-(1-methylpiperidin-4-ylidene)-4,10-dihydro-9-oxa-3-thiabenzo[f]azulen-6-yl]acetate hydrochloride], the ED50 on cerebral H1 receptor was 3.5 mg/kg; in test [1] it was about 0.01 mg/kg. For the same compound, at cerebral H1 receptor, the “ID50 (mg/kg)/ ED50 (mg/kg)” value was 350.0. The pIC50 in test [2] was 8.00.

Take `CN1CCC(=C2c3ccccc3CCc3cc(C=CC(=O)O)sc32)CC1` [Compound 15, 3-[4-(1-Methylpiperidin-4-ylidene)-9,10-dihydro-4H-3-thiabenzo[f]azulen-2-yl]acrylic acid]: at cerebral H1 receptor, the ED50 is 5.6 mg/kg and the “ID50 (mg/kg)/ ED50 (mg/kg)” value was 31.1. Moreover, in test [1], the ED50 stood at 0.18 mg/kg. This compound also gave a pIC50 in test [2] of 7.57.

Consider `CN1CCC(=C2c3cc(SCC(=O)O)ccc3OCc3ccsc32)CC1` [Compound 172, [4-(1-Methylpiperidin-4-ylidene)-4,10-dihydro-9-oxa-3-thiabenzo[f]azulen-6-ylsulfanyl]acetic acid], for which, at cerebral H1 receptor, the ED50 was 28 mg/kg and the “ID50 (mg/kg)/ ED50 (mg/kg)” value was 239.3. Further, the ED50 in test [1] amounted to 0.117 mg/kg. Moreover, the negative-log IC50 (pIC50) in test [2] is 7.65.

`COC(=O)Cc1ccc2c(c1)C(=C1CCN(CCNS(C)(=O)=O)CC1)c1sccc1CO2.Cl` [Compound 177, Methyl {4-[1-(2-methanesulfonylaminoethyl)piperidin-4-ylidene]-4,10-dihydro-9-oxa-3-thiabenzo[f]azulen-6-yl}acetate hydrochloride]: the ED50 on cerebral H1 receptor came out at 125 mg/kg; in test [1], 0.302 mg/kg. For the same compound, the “ID50 (mg/kg)/ ED50 (mg/kg)” value at cerebral H1 receptor is reported as 412.6. This compound also gave a pIC50 in test [2] of 8.15.

Take `COC(=O)Cc1ccc2c(c1)C(=C1CCN(CCCC(C)=O)CC1)c1sccc1CO2.Cl` [Compound 169, Methyl {4-[1-(4-oxopentyl)piperidin-4-ylidene]-4,10-dihydro-9-oxa-3-thiabenzo[f]azulen-6-yl}acetate hydrochloride]: at cerebral H1 receptor, the ED50 worked out at 12.5 mg/kg and the “ID50 (mg/kg)/ ED50 (mg/kg)” value was determined as 51.9. In test [1], this compound had an ED50 of 0.241 mg/kg. This compound had a pIC50 in test [2] of 8.08.

On to `COC(=O)Cc1ccc2c(c1)C(=C1CCN(CCCSC)CC1)c1sccc1CO2.Cl` [Compound 198, Methyl {4-[1-(3-methylsulfanylpropyl)piperidin-4-ylidene]-4,10-dihydro-9-oxa-3-thiabenzo[f]azulen-6-yl}acetate hydrochloride], for which, at cerebral H1 receptor, the ED50 stood at 22.1 mg/kg and the “ID50 (mg/kg)/ ED50 (mg/kg)” value is reported as 73.7. The same compound yielded an ED50 in test [1] of about 0.3 mg/kg. In addition, the negative-log IC50 (pIC50) in test [2] is 9.23.

For the compound `COC(=O)Cc1ccc2c(c1)C(=C1CCN(CCO)CC1)c1sccc1CO2.Cl` [Compound 118, Methyl {4-[1-(2-hydroxyethyl)piperidin-4-ylidene]-4,10-dihydro-9-oxa-3-thiabenzo[f]azulen-6-yl}acetate hydrochloride], at cerebral H1 receptor, the ED50 stood at 24.3 mg/kg and the “ID50 (mg/kg)/ ED50 (mg/kg)” value is reported as 50.6. The ED50 in test [1] is 0.48 mg/kg. The same compound showed a pIC50 in test [2] of 7.63.

`CCOC(=O)CCN1CCC(=C2c3cc(CC(=O)OC)ccc3OCc3ccsc32)CC1.Cl` [Compound 173, Ethyl 3-[4-(6-methoxycarbonylmethyl-10H-9-oxa-3-thiabenzo[f]azulen-4-ylidene)piperidin-1-yl]propionate hydrochloride]: at cerebral H1 receptor, the ED50 is 87.1 mg/kg and the “ID50 (mg/kg)/ ED50 (mg/kg)” value is 60.9. Moreover, the ED50 in test [1] was found to be 1.43 mg/kg. For the same compound, the pIC50 in test [2] was 8.90.

As for `CCCN1CCC(=C2c3cc(CC(=O)OC)ccc3OCc3ccsc32)CC1.Cl` [Compound 129, Methyl[4-(1-propylpiperidin-4-ylidene)-4,10-dihydro-9-oxa-3-thiabenzo[f]azulen-6-yl]acetate hydrochloride], at cerebral H1 receptor, the ED50 came to 40.5 mg/kg and the “ID50 (mg/kg)/ ED50 (mg/kg)” value amounted to 460.2. The ED50 in test [1] stood at 0.088 mg/kg. Further, the pIC50 in test [2] is 7.64.

With `COC(=O)CSc1ccc2c(c1)C(=C1CCNCC1)c1sccc1CO2.Cl` [Compound 197, Methyl (4-piperidin-4-ylidene-4,10-dihydro-9-oxa-3-thiabenzo[f]azulen-6-ylsulfanyl)acetate hydrochloride], the ED50 was over 200 mg/kg on cerebral H1 receptor and 0.19 mg/kg in test [1]. In addition, the “ID50 (mg/kg)/ ED50 (mg/kg)” value on cerebral H1 receptor was over 1052.6. The same compound gave a pIC50 in test [2] of 7.09.

On to `CCCN1CCC(=C2c3cc(CC(=O)O)ccc3OCc3ccsc32)CC1` [Compound 130, [4-(1-Propylpiperidin-4-ylidene)-4,10-dihydro-9-oxa-3-thiabenzo[f]azulen-6-yl]acetic acid], for which the ED50 at cerebral H1 receptor was determined as 8 mg/kg; in test [1], 0.044 mg/kg. Moreover, the “ID50 (mg/kg)/ ED50 (mg/kg)” value on cerebral H1 receptor was 181.8. Further, the pIC50 in test [2] was 7.11.

With `COC(=O)Cc1ccc2c(c1)C(=C1CCN(CCC(C)=O)CC1)c1sccc1CO2.Cl` [Compound 191, Methyl {4-[1-(3-oxobutyl)piperidin-4-ylidene]-4,10-dihydro-9-oxa-3-thiabenzo[f]azulen-6-yl}acetate hydrochloride], on cerebral H1 receptor, the ED50 is 79.2 mg/kg and the “ID50 (mg/kg)/ ED50 (mg/kg)” value stood at 132.7. Also, the ED50 in test [1] turned out to be 0.597 mg/kg. Also, the pIC50 in test [2] is 8.33.

As to `COC(=O)CSc1ccc2c(c1)C(=C1CCN(C)CC1)c1sccc1CO2.Cl` [Compound 171, Methyl[4-(1-methylpiperidin-4-ylidene)-4,10-dihydro-9-oxa-3-thiabenzo[f]azulen-6-ylsulfanyl]acetate hydrochloride], the ED50 at cerebral H1 receptor turned out to be 29.6 mg/kg; in test [1], 0.073 mg/kg. The “ID50 (mg/kg)/ ED50 (mg/kg)” value on cerebral H1 receptor turned out to be 405.5. Also, the pIC50 in test [2] was 8.38.

On to `CN1CCC(=C2c3ccccc3CCc3sc(CNC(N)=O)cc32)CC1` [Compound 49, 2-Ureidomethyl-4-(1-methylpiperidin-4-ylidene)-9,10-dihydro-4H-1-thiabenzo[f]azulene], for which, on cerebral H1 receptor, the ED50 is 33.9 mg/kg and the “ID50 (mg/kg)/ ED50 (mg/kg)” value turned out to be 33.9. The same compound showed an ED50 in test [1] of about 1 mg/kg. In test [2], this compound showed a pIC50 of 7.49.

Regarding `CN1CCC(=C2c3ccccc3OCc3cc(CC(=O)O)sc32)CC1.Cl` [Compound 58, [4-(1-Methylpiperidin-4-ylidene)-4,10-dihydro-9-oxa-3-thiabenzo[f]azulen-2-yl]acetic acid hydrochloride], at cerebral H1 receptor, the ED50 stood at 205 mg/kg and the “ID50 (mg/kg)/ ED50 (mg/kg)” value is 263.1. Also, the ED50 in test [1] came out at 0.78 mg/kg. Also, in test [2], the pIC50 is 7.16.
